Measurements as given in paper PMC5701174 (Scientific Reports, 2017).

Target: T1, PlaA (rPlaA, Strep-PlaA) (Legionella pneumophila, UniProt A0A378KFD4)
T1 construct: gene NCTC12000_02489
Details: 37 °C, 3 h; 25 ng protein in 50 µl; without ProA

T1 sequence (A0A378KFD4 20-309 limits assumed): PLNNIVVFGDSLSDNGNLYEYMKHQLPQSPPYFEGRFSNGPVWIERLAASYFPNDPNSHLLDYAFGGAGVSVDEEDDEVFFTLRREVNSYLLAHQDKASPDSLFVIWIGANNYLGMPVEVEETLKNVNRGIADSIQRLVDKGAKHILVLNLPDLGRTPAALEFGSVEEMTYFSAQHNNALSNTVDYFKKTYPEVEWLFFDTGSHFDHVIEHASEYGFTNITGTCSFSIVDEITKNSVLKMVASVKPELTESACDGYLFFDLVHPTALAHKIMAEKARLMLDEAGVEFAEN

Structure (SMILES)	free fatty acid quantification
CCCCCCCCCCCCCCCC(=O)OC[C@@H](O)COP(=O)([O-])OCC[N+](C)(C)C [LPC, 1-monopalmitoyllyso-phosphatidylcholine]	rPlaA possessed lipase and LPLA activities, the latter especially towards LPG and LPC
CCCCCCCCCCCCCCCC(=O)OC[C@@H](O)COP(=O)(O)OCC(O)CO (some centres unmarked) [LPG, 1-mono-palmitoyllysophosphatidylglycerol]	rPlaA possessed lipase and LPLA activities, the latter especially towards LPG and LPC
